Data: patent US20080081835A1, “Use of Ltb4 Inhibitors for the Treatment of B-Cell Leukemias and Lymphomas” (priority 2004, published 2008)

Experiments:
B-CLL cells [1] = experiment: DNA synthesis (3H-thymidine incorporation) in B-CLL cells activated by CD40L-L cells, 96 hr co-culture; assay type: cell-based, human
Protocol: FIG. 3 depicts the effects of leukotriene biosynthesis inhibitors on CD40L-induced thymidine incorporation in B-CLL cells. B-CLL cells (2×10^5) were co-cultured with either irradiated L cells alone (L), irradiated CD40L-L cells or irradiated CD40L-L cells plus indicated inhibitor for 96 hr. When inhibitors were used, B-CLL cells were pre-treated with the inhibitor for 30 min prior co-culturing with L cells or CD40L-L cells. The inhibitors used were: […]. The control result reported in the Figure represents B-CLL cells co-cultured with irradiated CD40L-L cells alone. ^3H-thymidine (1 μCi) was present for the final eight hours. Activation of B-CLL cells with CD40L-L treatment led to between 3580 and 15369 cpm (^3H-thymidine) incorporation (control) in different experiments. This was set as 100% in each experiment. […] Student's t-test was used to calculate statistics i.e. control vs. control plus indicated compound(s) (** P<0.01, *** P<0.001). B-cells were isolated from patients suffering with B-CLL or B-prolymphocytic leukemia (B-PLL) who had not received chemotherapy within during the previous six weeks (see Table 1 below). Peripheral blood samples were obtained after informed consent and with local ethics committee approval. Blood samples were Ficoll-Isopaque purified and washed twice in phosphate buffered saline (PBS). After that, cells were either frozen in PBS with 50% human AB serum and 10% dimethylsulfoxide or analyzed fresh. Frozen cell samples were thawed and washed in ice cold fetal calf serum and subsequently in PBS before analysis. Cells from two patients were used twice, both freshly isolated cells and after freezing with similar results. […]. The purity of the isolated cells was estimated by flow cytometric analysis (with FACS Calibur, Becton Dickinson, Mountain View, Calif.). Morphological analysis was performed after staining with May-Grunewald/Giemsa solution. The purity of B-CLL and B-PLL cells was >98%. Purified B-CLL cells were cultured in RPMI 1640 medium, supplemented with 10% FCS, 2 mM L-glutamine, 100 U/mL penicillin and 100 μg/mL streptomycin and incubated at […] in an atmosphere of 5% CO2. 2×10^5 of B-CLL cells were seeded in 200 μL medium in 96-well plates. B-CLL cells were pretreated with MK-886 (a specific FLAP inhibitor) (10^−6 to 10^−9 M) or BWA4C (a specific 5-LO inhibitor) (10^−7 to 10^−9 M) for 30 min, before co-culturing with irradiated (15,000 Rad) CD40L expressing L (CD40L-L) cells or control L (L) cells in the presence of inhibitors. LTB4 (10^−7 M) was present in the indicated cultures. Each sample was represented by triplicates. 1 μCi ^3H-thymidine was present in the wells for the final eight […] of the 96 hr cultures. The cells were harvested onto glass fibre filter and radioactivity was measured in a liquid scintillation counter.

B-CLL cells [2] = experiment: Flow cytometry (FACS) analysis of CD23, CD54 and CD150 expression in CD40L activated B-CLL cells; assay type: cell-based, human; conditions: for effect on CD40-induced increased expression of CD23, CD54 and CD150: 100 nM, 96 hrs
Protocol: FIG. 4 depicts the effects of leukotriene biosynthesis inhibitors on the expression of CD23, CD54 and CD150 in CD40L activated B-CLL. Purified B-CLL cells were co-cultured with either L cells or CD40L-L cells in the absence or presence of MK886 (10^−7 M), BWA4C (10^−7 M), and/or LTB4 (10^−7 M) for 96 hrs. When inhibitors were used, B-CLL cells were pre-treated with the inhibitor for 30 min prior to co-culturing with L cells or CD40L-L cells. B-CLL cells were collected and analysed by FACS with antibodies against CD23, CD54 or CD150. The figure depicts one typical experiment out of six. […] Cultured (described above) B-CLL cells were collected (without the plastic attached L cells) and used for FACS detection. Surface marker expression was detected by indirect immunofluorescence. One million cells/sample were washed in cold PBS containing 1% FCS and 0.1% sodium azide and then exposed to the relevant antibodies. The cells were washed and incubated with the RPE conjugated secondary antibody. All incubations were done at 4° C. Samples were run on a Becton Dickinson FACScan flow cytometer (Becton Dickinson, Mountain View, Calif.). The CellQuest software (Becton Dickinson) was used both for acquisition and analysis of the samples. Ten thousand events were collected on a FACScan flow cytometer, and the results were analysed using CellQuest (Becton Dickinson) software. Only the viable cells were considered for analysis based on their light scatter (FSC/SSC) characteristics. The following antibodies were used: MAb MHM-6 (anti-CD23, from Dr. M. Rowe, University of Wales, Cardiff, Wales, UK), MAb LB-2 (anti-CD54, from E. A. Clark, University of Washington, Seattle, Wash.), MAb IPO-3 (anti-SLAM, kind gift from S. Sidorenko, Acad. of Science of Ukraine, Kiev, Ukraine) and RPE conjugated rabbit anti-mouse Ig F(ab′)2 (Dako, Copenhagen, Denmark) were used as secondary antibody.

human lung cancer cells = conditions: cited from earlier work
serum proteins = conditions: Can. J. Physiol. Pharmacol. 67, 456 (1989); cited from earlier work
[3] = system: malignant cells from patients with acute or chronic myelogenous leukemia; conditions: cited from earlier work
B-CLL cells [4] = experiment: Biosynthesis of LTB4 by intact B-CLL cells (HPLC analysis); assay type: cell-based, human; conditions: intact cells preincubated with diamide (100 μM, two minutes), then A23187 (1 μM) and arachidonic acid (40 μM); mean of six experiments; without diamide 2.6±0.8
Protocol: pre-incubated (intact cells) with diamide (100 μM) for two minutes, followed by stimulation with A23187 (1 μM) and arachidonic acid (40 μM).
10×10^6 cells were suspended in 1 mL PBS and pre-incubated for two minutes with/without azodicarboxylic acid bis(dimethylamide), abbreviated diamide, (100 μM) prior to stimulation with arachidonic acid (40 μM) and/or calcium ionophore A23187 (1 μM). The cells were stimulated for five minutes at 37° C. and the incubations were terminated with 1 mL methanol.
After addition of 0.5 ml PBS and the internal standard PGB1 (100 pmol) to the samples, the cells were centrifuged (2500 rpm, 5 min). The supernatant was subsequently subjected to solid phase extraction on Chromabond C18 columns (200 mg, Macherey & Nagel). The methanol eluate was analysed on Waters Alliance 2695 reverse phase HPLC and detected with Waters PDA 996. Methanol:water:trifiuoroacetic acid (70:30:0.007, v/v) was used as mobile phase at a flow rate of 1.2 mL/min. Qualitative analysis was performed by comparison of retention times of synthetic standards and quantitative determinations were performed by computerized integration of the area of eluted peaks.

SMILES: CC(=O)N(O)C/C=C/c1cccc(Oc2ccccc2)c1 [BWA4C]
- effect on thymidine incorporation (B-CLL cells [1]; 10 nM): significant inhibitory effect
- potency to block DNA synthesis compared with MK-886 (B-CLL cells [1]; FIG. 3B): even more potent inhibitor than MK-886
- effect on CD40-induced increased expression of CD23, CD54 and CD150 (B-CLL cells [2]): markedly counteracted

SMILES: CCCCC/C=C\C[C@@H](O)/C=C/C=C/C=C\[C@@H](O)CCCC(=O)O [LTB4]
- reversal of the inhibitory action of 100 nM BWA4C on thymidine incorporation (B-CLL cells [1]; exogenous addition, 150 nM): almost completely reversed
- reversal of the inhibitory effect of MK-886 on thymidine incorporation (B-CLL cells [1]; exogenously added, 150 nM): almost completely reversed
- effect on CD40-induced thymidine incorporation, alone (B-CLL cells [1]; final concentration 150 nM, no inhibitor): did not amplify
- reversal of the inhibitory effect of the inhibitors (MK-886, BWA4C) on antigen expression (B-CLL cells [2]; 150 nM): almost completely reversed
- effect alone on the expression of CD23, CD54 and CD150 (B-CLL cells [2]; without inhibitor): did not cause any significant effect

SMILES: CC(C)c1ccc2c(c1)c(SC(C)(C)C)c(CC(C)(C)C(=O)O)n2Cc1ccc(Cl)cc1 [MK-886]
- antiproliferative effects (human lung cancer cells): antiproliferative effects
- binding to serum proteins (serum proteins): relatively high binding
- antiproliferative effects [3]: antiproliferative effects
- effect on DNA synthesis induced by CD40-ligand stimulation (B-CLL cells [1]; 100 nM): markedly inhibited DNA synthesis
- inhibition at 0.1 µM (B-CLL cells [1]; Homo sapiens, 100 nM inhibitor, CD40L-L stimulated B-CLL cells, 96 hr, read-out: inhibitory action on thymidine incorporation): 38%
- inhibition at 1 µM (B-CLL cells [1]; Homo sapiens, 1 μM inhibitor, CD40L-L stimulated B-CLL cells, 96 hr, read-out: inhibitory action on thymidine incorporation): 46%
- effect on CD40-induced increased expression of CD23, CD54 and CD150 (B-CLL cells [2]): markedly counteracted

SMILES: CN(C)C(=O)/N=N/C(=O)N(C)C [diamide, Azodicarboxylic acid bis(dimethylamide)]
- production of LTB4 (B-CLL cells [4]): 33.5±1.2 pmol/10^6 cells
